In US10196386B2, “Compounds having muscarinic receptor antagonist and beta2 adrenergic receptor agonist activity” (priority 2016, dated 2019) one finds IC50 data, which are given here for 16 molecules.

SMILES strings stand for the structures. Where only a bound is given, the exact number is not on record here.

The target of assay [1] is T1, Human β2 adrenoceptor (Homo sapiens, UniProt P07550).
T1 construct: purchased Perkin Elmer
Kind of assay: β2 adrenoceptor radioligand binding assay. On the procedure: β2 Adrenoceptor Radioligand Binding Assay
Human β2 adrenoceptor membranes (7.5 ug/well) from Perkin Elmer were incubated with 0.3 nM 125-I Cyanopindolol with or without test compounds, or a saturating concentration of s-propranolol (2 μM) for the determination of non-specific binding. The assay was carried out in 96-well polypropylene plates in a volume of 200 ul. The assay buffer used was 25 mM HEPES, 0.5% BSA (w/v), 1 mM EDTA, 0.02% ascorbic acid (v/v), (pH 7.4). The final assay concentration of DMSO was 0.5% (v/v). The plates were sealed and incubated for 1 h at room temperature on an orbital shaker (slow speed). Membranes were harvested onto 96-well unifilter GF/C filter plates pre-treated with 0.5% polyethyleneimine (v/v), using a filter manifold, washed six times with 200 ul of wash buffer containing 10 mM HEPES and 500 mM NaCl. The plates were dried before addition of 50 μl of microscint-0, sealed then read in a Trilux Microbeta scintillation counter. IC50 values are determined from competition curves using a non-linear curve fitting program. Ki values were calculated from IC50 values by the Cheng and Prusoff equation.

Assay [2] addresses T2, Human M3 receptor (Homo sapiens, UniProt P20309).
T2 construct: purchased Perkin Elmer
Kind of assay: biochemical. The format is binding. The note with it: read-out: M3 Range.

T1 sequence (P07550 whole entry): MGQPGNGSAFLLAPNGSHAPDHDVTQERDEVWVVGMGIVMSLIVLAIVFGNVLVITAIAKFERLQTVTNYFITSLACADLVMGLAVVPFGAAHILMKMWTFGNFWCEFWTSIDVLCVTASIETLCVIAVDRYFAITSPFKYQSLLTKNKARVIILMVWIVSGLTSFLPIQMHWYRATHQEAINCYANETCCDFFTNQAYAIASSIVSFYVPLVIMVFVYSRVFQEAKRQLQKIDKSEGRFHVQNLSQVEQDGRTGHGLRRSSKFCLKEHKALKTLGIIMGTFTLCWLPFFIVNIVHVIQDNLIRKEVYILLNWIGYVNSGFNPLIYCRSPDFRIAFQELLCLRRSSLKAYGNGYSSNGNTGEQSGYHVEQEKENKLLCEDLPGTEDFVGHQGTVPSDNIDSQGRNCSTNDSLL
T2 sequence (P20309 whole entry): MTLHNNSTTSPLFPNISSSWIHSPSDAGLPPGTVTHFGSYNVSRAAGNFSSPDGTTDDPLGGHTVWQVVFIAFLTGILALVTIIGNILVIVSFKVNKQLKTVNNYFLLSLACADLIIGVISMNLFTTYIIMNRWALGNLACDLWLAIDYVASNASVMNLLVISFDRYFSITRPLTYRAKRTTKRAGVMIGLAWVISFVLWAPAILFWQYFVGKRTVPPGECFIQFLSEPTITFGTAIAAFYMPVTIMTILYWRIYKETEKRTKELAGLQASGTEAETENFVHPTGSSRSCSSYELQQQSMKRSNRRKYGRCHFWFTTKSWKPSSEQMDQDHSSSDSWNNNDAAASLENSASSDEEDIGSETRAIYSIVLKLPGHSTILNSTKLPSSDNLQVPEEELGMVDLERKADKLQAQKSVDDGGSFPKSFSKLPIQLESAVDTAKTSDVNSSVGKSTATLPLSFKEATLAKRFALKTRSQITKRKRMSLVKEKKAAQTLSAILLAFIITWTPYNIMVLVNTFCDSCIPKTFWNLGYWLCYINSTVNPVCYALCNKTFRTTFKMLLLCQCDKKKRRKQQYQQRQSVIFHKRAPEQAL

`O=C(NCc1ccc(-c2cccc([C@](O)(C(=O)OCC3CCN(Cc4ccccc4)CC3)c3ccccc3)c2)s1)c1ccc(CNC[C@H](O)c2ccc(O)c3[nH]c(=O)ccc23)c(C(F)(F)F)c1` [Compound 1F, (1-Benzylpiperidin-4-yl)methyl (S)-2-hydroxy-2-(3-(5-((4-((((R)-2-hydroxy-2-(8-hydroxy-2-oxo-1,2-dihydroquinolin-5-yl)ethyl)amino)methyl)-3-(trifluoromethyl)benzamido)methyl)thiophen-2-yl)phenyl)-2-phenylacetate]: the IC50 in assay [1] is 0.3 to 3 nM; in assay [2], over 3 nM.

For the molecule `COc1cc(C(=O)NCc2ccc(-c3cccc([C@](O)(C(=O)OCC4(C)CCN(Cc5ccccc5)CC4)c4ccccc4)c3)s2)c(Cl)cc1CNC[C@H](O)c1ccc(O)c2[nH]c(=O)ccc12` [Compound 11, (1-Benzyl-4-methylpiperidin-4-yl)methyl (S)-2-(3-(5-((2-chloro-4-((((R)-2-hydroxy-2-(8-hydroxy-2-oxo-1,2-dihydroquinolin-5-yl)ethyl)amino)methyl)-5-methoxybenzamido)methyl)thiophen-2-yl)phenyl)-2-hydroxy-2-phenylacetate], the IC50 was under 0.3 nM in assay [1] and 0.3 to 3 nM in assay [2].

`O=C(NCc1ccc(-c2cccc([C@](O)(C(=O)OCC3CCN(Cc4ccccc4)CC3)c3ccccc3)c2)s1)c1ccc(CNC[C@H](O)c2ccc(O)c3[nH]c(=O)ccc23)s1` [Compound 1T, (1-Benzylpiperidin-4-yl)methyl (S)-2-hydroxy-2-(3-(5-((5-((((R)-2-hydroxy-2-(8-hydroxy-2-oxo-1,2-dihydroquinolin-5-yl)ethyl)amino)methyl)thiophene-2-carboxamido)methyl)thiophen-2-yl)phenyl)-2-phenylacetate]: the IC50 in assay [1] and in assay [2] was 0.3 to 3 nM each time.

Turning to `O=C(NCc1ccnc(-c2cccc([C@](O)(C(=O)OCC3CCN(Cc4ccccc4)CC3)c3ccccc3)c2)n1)c1ccc(CNC[C@H](O)c2ccc(O)c3[nH]c(=O)ccc23)cc1` [Compound 4D, (1-Benzylpiperidin-4-yl)methyl (S)-2-hydroxy-2-(3-(4-((4-((((R)-2-hydroxy-2-(8-hydroxy-2-oxo-1,2-dihydroquinolin-5-yl)ethyl)amino)methyl)-benzamido)methyl)pyrimidin-2-yl)phenyl)-2-phenylacetate], the IC50 in assay [1] and in assay [2] was 0.3 to 3 nM in each case.

In the case of `COc1cc(C(=O)N2CCC=C(c3cccc([C@](O)(C(=O)OCC4CCN(Cc5ccccc5)CC4)c4ccccc4)c3)C2)ccc1CNC[C@H](O)c1ccc(O)c2[nH]c(=O)ccc12` [Compound 3H, (1-Benzylpiperidin-4-yl)methyl (S)-2-hydroxy-2-(3-(1-(4-((((R)-2-hydroxy-2-(8-hydroxy-2-oxo-1,2-dihydroquinolin-5-yl)ethyl)amino)methyl)-3-methoxybenzoyl)-1,2,5,6-tetrahydropyridin-3-yl)phenyl)-2-phenylacetate], the IC50 in assay [1] was under 0.3 nM; in assay [2], 0.3 to 3 nM.

As for `O=C(NCc1ccc(-c2cccc([C@](O)(C(=O)OCC3CCN(Cc4ccccc4)CC3)c3ccccc3)c2)s1)c1ccc(CNC[C@H](O)c2ccc(O)c3[nH]c(=O)ccc23)cc1F` [Compound 1G, (1-Benzylpiperidin-4-yl)methyl (S)-2-(3-(5-((2-fluoro-4-((((R)-2-hydroxy-2-(8-hydroxy-2-oxo-1,2-dihydroquinolin-5-yl)ethyl)amino)methyl)-benzamido)methyl)thiophen-2-yl)phenyl)-2-hydroxy-2-phenylacetate], the results for the IC50 in assay [1] and in assay [2] were under 0.3 nM and 0.3 to 3 nM, respectively.

As for `COc1cc(C(=O)NCc2cncc(-c3cccc([C@](O)(C(=O)OCC4CCN(Cc5ccccc5)CC4)c4ccccc4)c3)n2)ccc1CNC[C@H](O)c1ccc(O)c2[nH]c(=O)ccc12` [Compound 4G, (1-Benzylpiperidin-4-yl)methyl (S)-2-hydroxy-2-(3-(6-((4-((((R)-2-hydroxy-2-(8-hydroxy-2-oxo-1,2-dihydroquinolin-5-yl)ethyl)amino)methyl)-3-methoxybenzamido)methyl)pyrazin-2-yl)phenyl)-2-phenylacetate], the IC50 in assay [1] was under 0.3 nM; in assay [2], 0.3 to 3 nM.

Take `O=C(NCc1ccc(-c2cccc([C@](O)(C(=O)OCC3CCN(Cc4ccccc4)CC3)c3ccccc3)c2)s1)c1cccc(CNC[C@H](O)c2ccc(O)c3[nH]c(=O)ccc23)c1` [Compound 1N, (1-Benzylpiperidin-4-yl)methyl (S)-2-hydroxy-2-(3-(5-((3-((((R)-2-hydroxy-2-(8-hydroxy-2-oxo-1,2-dihydroquinolin-5-yl)ethyl)amino)methyl)-benzamido)methyl)thiophen-2-yl)phenyl)-2-phenylacetate]: the IC50 in assay [1] and in assay [2] was 0.3 to 3 nM each time.

With `O=C(NCc1ccc(-c2cccc([C@](O)(C(=O)OCC3CCN(Cc4ccccc4)CC3)c3ccccc3)c2)s1)c1ccc(CNC[C@H](O)c2ccc(O)c3[nH]c(=O)ccc23)nc1` [Compound 1L, (1-Benzylpiperidin-4-yl)methyl (S)-2-hydroxy-2-(3-(5-((6-((((R)-2-hydroxy-2-(8-hydroxy-2-oxo-1,2-dihydroquinolin-5-yl)ethyl)amino)methyl)-nicotinamido)methyl)thiophen-2-yl)phenyl)-2-phenylacetate], the IC50 was under 0.3 nM in assay [1] and 0.3 to 3 nM in assay [2].

As for `O=C(c1ccc(CNC[C@H](O)c2ccc(O)c3[nH]c(=O)ccc23)cc1)N1CCC(c2cccc([C@](O)(C(=O)OCC3CCN(Cc4ccccc4)CC3)c3ccccc3)c2)CC1` [Compound 7, (1-Benzylpiperidin-4-yl)methyl (S)-2-hydroxy-2-(3-(1-(4-((((R)-2-hydroxy-2-(8-hydroxy-2-oxo-1,2-dihydroquinolin-5-yl)ethyl)amino)methyl)benzoyl)piperidin-4-yl)phenyl)-2-phenylacetate], the IC50 in assay [1] and in assay [2] was 0.3 to 3 nM each time.

Regarding `O=C(NCC(=O)N1CC=C(c2cccc([C@](O)(C(=O)OCC3CCN(Cc4ccccc4)CC3)c3ccccc3)c2)CC1)c1ccc(CCNC[C@H](O)c2ccc(O)c3[nH]c(=O)ccc23)cc1` [Compound 8, (1-Benzylpiperidin-4-yl)methyl (S)-2-hydroxy-2-(3-(1-((4-(2-(((R)-2-hydroxy-2-(8-hydroxy-2-oxo-1,2-dihydroquinolin-5-yl)ethyl)amino)ethyl)benzoyl)-glycyl)-1,2,3,6-tetrahydropyridin-4-yl)phenyl)-2-phenylacetate], the IC50 in assay [1] and in assay [2] was under 0.3 nM each time.

For `O=C(c1cncc(-c2cccc([C@](O)(C(=O)OCC3CCN(Cc4ccccc4)CC3)c3ccccc3)c2)c1)N1CCC(CNC[C@H](O)c2ccc(O)c3[nH]c(=O)ccc23)CC1` [Compound 6E, (1-Benzylpiperidin-4-yl)methyl (S)-2-hydroxy-2-(3-(5-(4-((((R)-2-hydroxy-2-(8-hydroxy-2-oxo-1,2-dihydroquinolin-5-yl)ethyl)amino)methyl)piperidine-1-carbonyl)pyridin-3-yl)phenyl)-2-phenylacetate], the values for the IC50 in assay [1] and in assay [2] were under 0.3 nM and 0.3 to 3 nM, respectively.

Take `O=C(NCc1cnc(-c2ccc([C@](O)(C(=O)OCC3CCN(Cc4ccccc4)CC3)c3ccccc3)cc2)s1)c1ccc(CNC[C@H](O)c2ccc(O)c3[nH]c(=O)ccc23)cc1` [Compound 15C, (1-benzylpiperidin-4-yl)methyl (S)-2-hydroxy-2-(4-(5-((4-((((R)-2-hydroxy-2-(8-hydroxy-2-oxo-1,2-dihydroquinolin-5-yl)ethyl)amino)methyl)-benzamido)methyl)thiazol-2-yl)phenyl)-2-phenylacetate]: the IC50 is under 0.3 nM in assay [1] and 0.3 to 3 nM in assay [2].

Turning to `O=C(NCc1ccc(-c2cccc([C@](O)(C(=O)OC[C@@H]3[C@H]4CN(Cc5ccccc5)C[C@@H]34)c3ccccc3)c2)s1)c1ccc(CNC[C@H](O)c2ccc(O)c3[nH]c(=O)ccc23)cc1` [Compound 2D, ((1R,5S,6r)-3-Benzyl-3-azabicyclo[3.1.0]hexan-6-yl)methyl (S)-2-hydroxy-2-(3-(5-((4-((((R)-2-hydroxy-2-(8-hydroxy-2-oxo-1,2-dihydroquinolin-5-yl)ethyl)amino)methyl)benzamido)methyl)thiophen-2-yl)phenyl)-2-phenylacetate], the IC50 in assay [1] and in assay [2] was 0.3 to 3 nM in each case.

Consider `COc1cc(C(=O)N2CC=C(c3cccc([C@](O)(C(=O)OCC4CCN(Cc5ccccc5)CC4)c4ccccc4)c3)C2)ccc1CNC[C@H](O)c1ccc(O)c2[nH]c(=O)ccc12` [Compound 3J, (1-Benzylpiperidin-4-yl)methyl (S)-2-hydroxy-2-(3-(1-(4-((((R)-2-hydroxy-2-(8-hydroxy-2-oxo-1,2-dihydroquinolin-5-yl)ethyl)amino)methyl)-3-methoxybenzoyl)-2,5-dihydro-1H-pyrrol-3-yl)phenyl)-2-phenylacetate], for which the IC50 in assay [1] and in assay [2] was under 0.3 nM throughout.

Consider `COc1cc(C(=O)NCc2ccc(-c3ccc([C@](O)(C(=O)OCC4CCN(Cc5ccccc5)CC4)c4ccccc4)cc3)s2)ccc1CNC[C@H](O)c1ccc(O)c2[nH]c(=O)ccc12` [Compound 15A, (1-benzylpiperidin-4-yl)methyl (S)-2-hydroxy-2-(4-(5-((4-((((R)-2-hydroxy-2-(8-hydroxy-2-oxo-1,2-dihydroquinolin-5-yl)ethyl)amino)methyl)-3-methoxybenzamido)methyl)thiophen-2-yl)phenyl)-2-phenylacetate], for which the IC50 in assay [1] was under 0.3 nM; in assay [2], 0.3 to 3 nM.
